Results taken from patent US20150374394A1, “SONOLYSIS WITH BIODEGRADABLE NANOPARTICLES” (THE BOARD OF TRUSTEES OF THE UNIVERSITY OF ARKANSAS, priority 2012, published 2015).

Tested on: clots formed from pooled rabbit plasma with rabbit blood cells
Assay: In vitro sonothrombolysis (STBL) of clots with MBs, CPDL, tPA and/or 450 nm StNPs, pulsed 1 MHz ultrasound
Conditions: pulsed 1 MHz ultrasound 15 min, in bovine calf serum, 0.5 mL/min; control ultrasound alone; 3 μm MBs, 0.1 mg/ml tPA, 0.06% w/V CPDL nanoemulsion
Protocol: FIG. 1 depicts a graph showing the potentiation of sonothrombolysis (STBL) efficacy by microbubbles (MBs) and/or a nanoemulsion of cyclopentadecanolide with or without tissue plasminogen activator (tPA). […] STBL was performed with fibrin-rich clots (see Example 2) using pulsed, 1 MHz ultrasound for 15 min. The MBs, tPA, StNPs etc. were suspended in bovine calf serum and introduced at a flow rate of 0.5 mL/min. STBL efficacy is reported as % clot lysis. Abbreviations: US=ultrasound; MBs=microbubbles; CPDL=cyclopentadecanolide; StNPs=starch nanoparticles; tPA=tissue plasminogen activator.
The clots used in these experiments were formed by mixing pooled rabbit plasma with rabbit blood cells (final volume equal to 2 mL; the volume of whole rabbit blood from which the cells were obtained), incubating this mixture for 24 h at 37° C. and then curing the formed clots for 24 h at 5° C. […] The StNPs were diluted to have an Optical Density reading at 530 nm (OD530) of 1.0. […] STBL efficacy was measured as the percent of the initial clot mass that was lost from the clot during the 15 min treatment time.

O=C1CCCCCCCCCCCCCCO1 [CPDL, cyclopentadecanolide]
STBL efficacy (FIG. 1), in words: improved STBL efficacy markedly
